Several values for one entry are separate records, joined by “and”; a condition that tells them apart may be missing. Equal entries are not always repeated.
System: BDF1 mice, Adenocarcinoma 755 s.c., tumor weight T/C
Test: NCI In Vivo Anticancer Drug Screen. Data for tumor model Adenocarcinoma 755 (subcutaneous) in B6D2F1 (BDF1) mice
Conditions: endpoint: mean tumor weight, higher = larger tumour
Summary of the method: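 Transplantable tumor implanted; mice dosed with compound or vehicle; survival or tumor size recorded; ratio of treated to vehicle control reported.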

[1] = dose: 15.0 mg/kg/injection, schedule: Q01DX011 (ip), vehicle: saline
[2] = dose: 31.0 mg/kg/injection, schedule: Q01DX011 (ip), vehicle: saline
[3] = dose: 62.0 mg/kg/injection, schedule: Q01DX011 (ip), vehicle: saline
[4] = dose: 125.0 mg/kg/injection, schedule: Q01DX011 (ip), vehicle: saline
[5] = dose: 250.0 mg/kg/injection, schedule: Q01DX011 (ip), vehicle: saline
[6] = dose: 25.0 mg/kg/injection, schedule: Q01DX011 (ip), vehicle: saline
[7] = dose: 15.0 mg/kg/injection, schedule: Q01DX011 (ip), vehicle: methylcellulose (MC)
[8] = dose: 31.0 mg/kg/injection, schedule: Q01DX011 (ip), vehicle: methylcellulose (MC)
[9] = dose: 62.0 mg/kg/injection, schedule: Q01DX011 (ip), vehicle: methylcellulose (MC)
[10] = dose: 125.0 mg/kg/injection, schedule: Q01DX011 (ip), vehicle: methylcellulose (MC)

For `CN1CCC(N)=NC1=O`, the T/C [1] was 88 % of control, the T/C [2] was 92 % of control and the T/C [3] was 92 % of control. The T/C [4] was 65 % of control and the T/C [5] was 74 % of control.
In the case of `CC(=O)Nc1c(Cl)c(Cl)c2c(c1Cl)Cc1cc(F)ccc1-2`, the T/C (dose: 125.0 mg/kg/injection, schedule: Q01DX011 (ip), vehicle: carboxymethylcellulose (CMC)) is reported as 91 % of control, the T/C [4] is reported as 29 % of control and the T/C (dose: 250.0 mg/kg/injection, schedule: Q01DX011 (ip), vehicle: carboxymethylcellulose (CMC)) is reported as 41 % of control. The T/C [5] was 29 % of control, the T/C (dose: 500.0 mg/kg/injection, schedule: Q01DX011 (ip), vehicle: carboxymethylcellulose (CMC)) was 42 % of control and the T/C (dose: 500.0 mg/kg/injection, schedule: Q01DX011 (ip), vehicle: saline) was 17 % of control. For the same compound, the T/C (dose: 1000.0 mg/kg/injection, schedule: Q01DX011 (ip), vehicle: carboxymethylcellulose (CMC)) was 25 % of control and the T/C (dose: 1000.0 mg/kg/injection, schedule: Q01DX011 (ip), vehicle: saline) was 14 % of control.
`O=C(CCBr)N1CN(C(=O)CCBr)CN(C(=O)CCBr)C1` was tested, and the T/C (dose: 57.0 mg/kg/injection, schedule: Q01DX011 (ip), vehicle: methylcellulose (MC)) was 117 % of control, the T/C (dose: 113.0 mg/kg/injection, schedule: Q01DX011 (ip), vehicle: methylcellulose (MC)) was 97 % of control and the T/C (dose: 225.0 mg/kg/injection, schedule: Q01DX011 (ip), vehicle: methylcellulose (MC)) was 80 % of control.
`Cc1ccc(N=S=O)cc1` was tested, and the T/C [4] was 68 % of control.
In the case of `Nc1ncc(N)c(N)n1`, the T/C (dose: 30.0 mg/kg/injection, schedule: Q01DX011 (ip), vehicle: carboxymethylcellulose (CMC)) is reported as 89 % of control, the T/C (dose: 60.0 mg/kg/injection, schedule: Q01DX011 (ip), vehicle: carboxymethylcellulose (CMC)) is reported as 116 % of control and the T/C (dose: 120.0 mg/kg/injection, schedule: Q01DX011 (ip), vehicle: carboxymethylcellulose (CMC)) is reported as 111 % of control. For the same compound, the T/C (dose: 240.0 mg/kg/injection, schedule: Q01DX011 (ip), vehicle: carboxymethylcellulose (CMC)) was 96 % of control.
`NC(N)=NC(CC(=O)O)c1ccccc1` (centres undefined) was tested, and the T/C [1] was 87 % of control, the T/C [2] was 99 % of control and the T/C [3] was 87 % of control. For the same compound, the T/C [4] was 107 % of control and the T/C [5] was 91 % of control.
`CCCCCSc1nc(N)nc2nc[nH]c12` was tested, and the T/C (dose: 0.04 mg/kg/injection, schedule: Q01DX011 (ip), vehicle: alkali diluted with saline) was 114 % of control, the T/C (dose: 0.08 mg/kg/injection, schedule: Q01DX011 (ip), vehicle: alkali diluted with saline) was 119 % of control and the T/C (dose: 0.16 mg/kg/injection, schedule: Q01DX011 (ip), vehicle: alkali diluted with saline) was 95 % of control. The T/C (dose: 0.32 mg/kg/injection, schedule: Q01DX011 (ip), vehicle: alkali diluted with saline) was 80 % of control, the T/C (dose: 0.63 mg/kg/injection, schedule: Q01DX011 (ip), vehicle: alkali diluted with saline) was 112 % of control and the T/C (dose: 1.25 mg/kg/injection, schedule: Q01DX011 (ip), vehicle: alkali diluted with saline) was 97 % of control. The T/C (dose: 1.5 mg/kg/injection, schedule: Q01DX011 (ip), vehicle: saline) was 79 % of control, the T/C (dose: 2.5 mg/kg/injection, schedule: Q01DX011 (ip), vehicle: alkali diluted with saline) was 85 % of control and the T/C (dose: 3.1 mg/kg/injection, schedule: Q01DX011 (ip), vehicle: saline) was 100 % of control. The T/C (dose: 5.0 mg/kg/injection, schedule: Q01DX011 (ip), vehicle: alkali diluted with saline) was 106 % of control, the T/C (dose: 6.25 mg/kg/injection, schedule: Q01DX011 (ip), vehicle: saline) was 83 % of control and the T/C (dose: 10.0 mg/kg/injection, schedule: Q01DX011 (ip), vehicle: alkali diluted with saline) was 82 % of control. The T/C (dose: 12.5 mg/kg/injection, schedule: Q01DX011 (ip), vehicle: saline) was 43 % of control, the T/C [6] was 47 % of control and the T/C (dose: 50.0 mg/kg/injection, schedule: Q01DX011 (ip), vehicle: saline) was 7 % of control. The T/C (dose: 100.0 mg/kg/injection, schedule: Q01DX011 (ip), vehicle: saline) was 3 % of control.
In the case of `NC(=O)c1cc(N)nc(N)n1`, the T/C [7] is reported as 97 % of control, the T/C [8] is reported as 106 % of control and the T/C [9] is reported as 114 % of control. The T/C [10] was 45 % of control.
For `CC(=O)Nc1nc(SCc2ccccc2)c2ncn(C3CCCO3)c2n1` (centres undefined), the T/C (dose: 6.2 mg/kg/injection, schedule: Q01DX011 (ip), vehicle: methylcellulose (MC)) was 54 % of control, the T/C [7] was 6 % of control and the T/C (dose: 50.0 mg/kg/injection, schedule: Q01DX011 (ip), vehicle: methylcellulose (MC)) was 4 % of control.
With `CC(Sc1ncnc2nc[nH]c12)c1ccccc1` (centres undefined) the T/C (dose: 0.37 mg/kg/injection, schedule: Q01DX011 (ip), vehicle: methylcellulose (MC)) was 60 % of control, the T/C (dose: 0.65 mg/kg/injection, schedule: Q01DX011 (ip), vehicle: methylcellulose (MC)) was 83 % of control and the T/C (dose: 1.11 mg/kg/injection, schedule: Q01DX011 (ip), vehicle: methylcellulose (MC)) was 35 % of control. For the same compound, the T/C (dose: 1.3 mg/kg/injection, schedule: Q01DX011 (ip), vehicle: methylcellulose (MC)) was 97 % of control, the T/C (dose: 2.5 mg/kg/injection, schedule: Q01DX011 (ip), vehicle: methylcellulose (MC)) was 37 % of control and the T/C (dose: 3.33 mg/kg/injection, schedule: Q01DX011 (ip), vehicle: methylcellulose (MC)) was 62 % of control. The T/C (dose: 5.0 mg/kg/injection, schedule: Q01DX011 (ip), vehicle: methylcellulose (MC)) was 12 % of control and the T/C (dose: 10.0 mg/kg/injection, schedule: Q01DX011 (ip), vehicle: methylcellulose (MC)) was 18 % of control.
With `C[C@]12C[C@H](O)[C@H]3[C@@H](CCC4=CC(=O)CC[C@@]43C)[C@@H]1CC[C@@H]2C(=O)CF` the T/C (dose: 25.0 mg/kg/injection, schedule: Q01DX011 (sc), vehicle: steriod suspending solution) was 121 % of control, the T/C (dose: 200.0 mg/kg/injection, schedule: Q01DX011 (sc), vehicle: steriod suspending solution) was 79 % of control and the T/C (dose: 400.0 mg/kg/injection, schedule: Q01DX011 (sc), vehicle: steriod suspending solution) was 79 % of control.
With `Cc1nc2nncn2c(=O)[nH]1` the T/C [6] was 67 % of control, the T/C (dose: 75.0 mg/kg/injection, schedule: Q01DX011 (ip), vehicle: saline) was 101 % of control and the T/C (dose: 225.0 mg/kg/injection, schedule: Q01DX011 (ip), vehicle: saline) was 84 % of control.
With `CCCCOP(=O)(N1CC1C)N1CC1C` (centres undefined) the T/C (dose: 2.0 mg/kg/injection, schedule: Q01DX011 (ip), vehicle: saline) was 92 % of control and 96 % of control and 114 % of control and the T/C (dose: 32.0 mg/kg/injection, schedule: Q01DX011 (ip), vehicle: saline) was 25 % of control.
For `Cc1cn(C2CCCCC2)c(=O)n(-c2ccccc2)c1=O`, the T/C [7] was 108 % of control, the T/C [8] was 91 % of control and the T/C [9] was 93 % of control. For the same compound, the T/C [10] was 96 % of control and the T/C (dose: 250.0 mg/kg/injection, schedule: Q01DX011 (ip), vehicle: methylcellulose (MC)) was 88 % of control.
`C[C@]12CCCC[C@@H]1CC[C@@H]1[C@@H]2[C@@](C)(O)C[C@@]2(C)[C@H]1CC[C@]2(C)O` was tested, and the T/C (dose: 300.0 mg/kg/injection, schedule: Q01DX011 (sc), vehicle: steriod suspending solution) was 79 % of control.
In the case of `CN(C)C1C(=O)C(C(=O)NCNC(CCS(C)=O)C(=O)O)=C(O)C2(O)C(=O)C3=C(O)c4c(O)cccc4C(C)(O)C3CC12` (centres undefined), the T/C (dose: 200.0 mg/kg/injection, schedule: Q01DX011 (ip), vehicle: saline) is reported as 68 % of control.
`COC(=O)[C@@H]1c2cc3c(c(O)c2[C@@H](OC2OC(C)C(OC)C(C)(OC)C2OC)C[C@]1(C)O)C(=O)c1c(O)cc2c(c1C3=O)O[C@H]1O[C@]2(C)[C@H](O)[C@@H](N(C)C)[C@@H]1O` (some centres undefined) was tested, and the T/C (dose: 0.2 mg/kg/injection, schedule: Q01DX011 (ip), vehicle: carboxymethylcellulose (CMC)) was 83 % of control, the T/C (dose: 0.3 mg/kg/injection, schedule: Q01DX011 (ip), vehicle: carboxymethylcellulose (CMC)) was 89 % of control and the T/C (dose: 0.3 mg/kg/injection, schedule: Q01DX011 (ip), vehicle: saline) was 179 % of control. For the same compound, the T/C (dose: 0.44 mg/kg/injection, schedule: Q01DX011 (ip), vehicle: carboxymethylcellulose (CMC)) was 57 % of control, the T/C (dose: 0.44 mg/kg/injection, schedule: Q01DX011 (ip), vehicle: saline) was 113 % of control and the T/C (dose: 0.67 mg/kg/injection, schedule: Q01DX011 (ip), vehicle: carboxymethylcellulose (CMC)) was 99 % of control. For the same compound, the T/C (dose: 1.0 mg/kg/injection, schedule: Q01DX011 (ip), vehicle: carboxymethylcellulose (CMC)) was 103 % of control.
